{
  "source": "patent US7439250B2",
  "about": "“Compositions and methods related to fatty amino acid derivatives” (Board of Regents, The University of Texas System, priority 2002, dated 2008)",
  "key": {"[1]": {"test": "pH sensitivity of liposomes: turbidity (absorbance at 400 nm) as a function of pH titration", "assay_type": "physicochemical", "details": "samples (50 μl) in 3 ml PBS titrated with HCl; pH lowered from 4.5 to 3.5; DSPC samples extruded to 100 nm", "method": "FIG. 2 illustrates the absorbance change as a function of pH titration. Samples (50 μl) in 3 ml of PBS were titrated with HCl. The pH was measured and absorbence read at 400 nm.\nThe DSPC MLV samples were then processed by extrusion to form liposomes with diameters of 100 nm. The pH sensitivity of the liposomes were compared by monitoring turbidity at 400 nm as a function of pH. […] This feature of ALP may be useful in certain applications where pH plays a role."}, "[2]": {"test": "Liposome preparation by lipid film rehydration, observed by light microscopy", "assay_type": "physicochemical", "details": "PBS pH 7.2, 55° C.", "method": "Two ALPs of General Formula 1 were prepared, a) laurylaldehyde (X=O and R^1, R^2=C11H23) or b) (S,S)-(3-Octadecanoyl-6-oxo-2-undecyl-hexahydro-pyrimidine-4-carboxlic acid and tested for the ability to form liposomes and for its suitability as a component of liposomes containing phospholipids and cholesterol. Liposomes were prepared by mixing varying amounts of the phospholipid, distearoyl phosphatidylcholine (DSPC), cholesterol or ALP in chloroform. The chloroform was removed to form a thin lipid film. After vacuum desiccation overnight, each lipid formulation was rehydrated with phosphate buffered saline (PBS), pH 7.2, warmed to 55° C. (phase transition temperature of DSPC) and vortexed vigorously to form multilamellar liposomes (MLV). Aliquots of each MLV formulation were set aside and observed by light microscopy. DSPC MLV, DSPC MLV containing 10 mole % ALP, ALP lipid structures (3 mg/ml) and ALP lipid structures (30 mg/ml), respectively, were imaged."}},
  "data": [
    {"smiles": "CCCCCCCCCCCCCCCCCC(=O)N1[C@@H](CCCCCCCCCCC)NC(=O)C[C@H]1C(=O)O", "note": "[ALP]", "values": [
      {"measurement": "absorbance change at 400 nm as a function of pH (pH sensitivity)", "setting": "[1]", "value": "increased"},
      {"measurement": "structures formed on rehydration (light microscopy)", "setting": "[2]; ALP alone at high concentrations (30 mg/ml)", "value": "crystal structures were evident"},
      {"measurement": "structures formed on rehydration (light microscopy)", "setting": "[2]; ALP alone at low concentrations (3 mg/ml)", "value": "typically form liposomes"}
    ]}
  ]
}
